Experimental data taken from patent publication US4440943A, “Phenoxiodinin-5-ium antimicrobial compounds” (The Dow Chemical Company, priority 1982, dated 1984).
Counter-ions that a name gives are not always drawn. Like-named read-outs stand apart in the source and are kept apart here. Each block holds one molecule with its values, some of them ahead of it.

Assays:
Format in all cases: cell-based
Escherichia coli = assay: Agar dilution MIC vs Escherichia coli (trypticase soy agar); conditions: first screened at 500 ppm; for MIC: read-out: Minimum inhibitory concentration, Ec
Procedure: (§1) A tube containing 30 ml of trypticase soy agar was melted and warmed to 45° C. The test compound was added to the tube at a concentration of 0.05% (500 ppm). The mixture was stirred and poured into plates to harden. When hardened, the plates were inoculated with various aerobic and anaerobic organisms. The aerobic plates were incubated at 37° C. for 24 hours and then read for bacterial growth. The same plates were again incubated at 30° C. for an additional 48 hours at which point they were checked for yeast and fungal growth. The anaerobic plates were incubated at 37° C. in an anaerobic chamber and read at 48 hours.
(§2) After the initial readings, compounds showing sufficient activity were re-tested at various concentrations to determine the minimum inhibitory concentration (MIC) of the compounds of the invention against various bacteria and fungi.

Proteus mirabilis = assay: Agar dilution MIC vs Proteus mirabilis (trypticase soy agar); conditions: first screened at 500 ppm; for MIC: read-out: Minimum inhibitory concentration, Pm
Procedure: as §1, §2

Salmonella typhosa = assay: Agar dilution MIC vs Salmonella typhosa (trypticase soy agar); conditions: for Minimum inhibitory concentration, St: Salmonella typhosa, first screened at 500 ppm; for MIC: Salmonella enterica, TYPHOSA, read-out: Minimum inhibitory concentration, St, Salmonella typhosa, first screened at 500 ppm
Procedure: as §1, §2

Bacillus subtilis = assay: Agar dilution MIC vs Bacillus subtilis (trypticase soy agar); conditions: first screened at 500 ppm; for MIC: read-out: Minimum inhibitory concentration, Bs
Procedure: as §1, §2

[1] = test system: Trichophyton mentagrophytes; assay: Agar dilution MIC vs Trichophyton mentagrophytes (trypticase soy agar); conditions: first screened at 500 ppm
Procedure: as §1, §2

Streptococcus mutans [2] = assay: Acid inhibition in Streptococcus mutans (Trypticase-yeast medium with sucrose, NaOH titration); conditions: S. mutans, 48 hours at 37° C.; for minimal effective concentration: Streptococcus mutans, 48 h, read-out: Acid Inhibition (minimum concentration which prevented acid formation)
Procedure: In still another operation, the acid inhibiting property of these compounds was tested against the known acid producing organism, Streptococcus mutans. Test tubes containing Trypticase-yeast medium with sucrose were inoculated with S. mutans and incubated for 48 hours at 37° C. The tubes were then titrated with 0.1 N sodium hydroxide.

[3] = test system: Streptococcus mutans (ATCC 10449); assay: MIC and MBC vs Streptococcus mutans, Todd Hewitt broth, standard dilution; conditions: for MBC: read-out: MBC (minimum bactericidal concentration)
Procedure: In another procedure, the minimum inhibitory concentration (MIC) and minimum bactericidal concentration (MBC) were determined in ppm for various compounds of the invention against the bacteria, Streptococcus mutans (ATCC 10449). The testing was performed using Todd Hewitt broth and standard dilution techniques.

Staphylococcus aureus = assay: Agar dilution MIC vs Staphylococcus aureus (trypticase soy agar); conditions: first screened at 500 ppm; for MIC: read-out: Minimum inhibitory concentration, Sa
Procedure: as §1, §2

Streptococcus mutans [4] = assay: Agar dilution MIC vs Streptococcus mutans (trypticase soy agar); conditions: first screened at 500 ppm; for MIC: read-out: Minimum inhibitory concentration, Sm
Procedure: as §1, §2

Aspergillus niger = assay: Agar dilution MIC vs Aspergillus niger (trypticase soy agar); conditions: first screened at 500 ppm; for MIC: read-out: Minimum inhibitory concentration, An
Procedure: as §1, §2

Candida pelliculosa = assay: Agar dilution MIC vs Candida pelliculosa (trypticase soy agar); conditions: first screened at 500 ppm
Procedure: as §1, §2

Aspergillus fumigatus = assay: Agar dilution MIC vs Aspergillus fumigatus (trypticase soy agar); conditions: first screened at 500 ppm; for MIC: read-out: Minimum inhibitory concentration, Af
Procedure: as §1, §2

[5] = Streptococcus mutans ATCC 10449, Todd Hewitt broth, monohydrate
[6] = Streptococcus mutans ATCC 10449, Todd Hewitt broth
[7] = Streptococcus mutans ATCC 10449, Todd Hewitt broth, hemihydrate
[8] = Streptococcus mutans, ATCC10449, Streptococcus mutans ATCC 10449, Todd Hewitt broth
[9] = Streptococcus mutans, ATCC10449, Streptococcus mutans ATCC 10449, Todd Hewitt broth, read-out: MIC
[10] = Streptococcus mutans ATCC 10449, Todd Hewitt broth, dihydrate

Structure (SMILES): CC(=O)c1ccc2c(c1)[I+]c1cc(C(C)=O)ccc1O2 [1(b), 3,7-diacetylphenoxiodinin-5-ium bromide monohydrate]
- Minimum inhibitory concentration, Ec (Escherichia coli; monohydrate): 50 PPM
- Minimum inhibitory concentration, Pm (Proteus mirabilis; monohydrate): 500 PPM
- Minimum inhibitory concentration, St (Salmonella typhosa; monohydrate): 10 PPM
- Minimum inhibitory concentration, Bs (Bacillus subtilis; monohydrate): 5 PPM
- Minimum inhibitory concentration, Tm ([1]; monohydrate): 100 PPM
- Acid Inhibition (minimum concentration which prevented acid formation) (Streptococcus mutans [2]; monohydrate): 0.1 ppm
- MBC (minimum bactericidal concentration) [3, 5]: 0.5 ppm
- MIC [3, 5]: 0.1 ppm

Structure (SMILES): CCC(=O)c1ccc2c(c1)[I+]c1cc(C(=O)CC)ccc1O2 [2(b)]
- Minimum inhibitory concentration, Bs (Bacillus subtilis): 500 PPM
- Minimum inhibitory concentration, Sa (Staphylococcus aureus): 500 PPM
- Acid Inhibition (minimum concentration which prevented acid formation) (Streptococcus mutans [2]): 7.8 ppm
- MBC (minimum bactericidal concentration) [3, 6]: 31 ppm
- MIC [3, 6]: 125 ppm

Structure (SMILES): CCC(=O)c1ccc2c(c1)[I+]c1cc(C(=O)CC)ccc1O2 [2(a), 3,7-Dipropionylphenoxiodinin-5-ium chloride hemihydrate]
- MIC (Escherichia coli): 50 µg/mL
- MIC (Proteus mirabilis): 100 µg/mL
- MIC (Salmonella typhosa): 50 µg/mL
- Minimum inhibitory concentration, Bs (Bacillus subtilis; hemihydrate): 50 PPM
- Minimum inhibitory concentration, Sa (Staphylococcus aureus; hemihydrate): 10 PPM
- MIC ([1]; read-out: Minimum inhibitory concentration, Tm): 500 µg/mL
- Acid Inhibition (minimum concentration which prevented acid formation) (Streptococcus mutans [2]; hemihydrate): 0.1 ppm
- MBC (minimum bactericidal concentration) [3, 7]: 0.5 ppm
- MIC [3, 7]: 2.0 ppm

Structure (SMILES): CC(=O)c1ccc2c(c1)[I+]c1cc(C(C)=O)ccc1O2 [1(c), 3,7-diacetylphenoxiodinin-5-ium bisulfite hemihydrate]
- Minimum inhibitory concentration, Ec (Escherichia coli; hemihydrate): 10 PPM
- Minimum inhibitory concentration, Pm (Proteus mirabilis; hemihydrate): 50 PPM
- Minimum inhibitory concentration, St (Salmonella typhosa; hemihydrate): 5 PPM
- Minimum inhibitory concentration, Bs (Bacillus subtilis; hemihydrate): 1.0 PPM
- Minimum inhibitory concentration, Tm ([1]; hemihydrate): 100 PPM
- Acid Inhibition (minimum concentration which prevented acid formation) (Streptococcus mutans [2]; hemihydrate): 0.5 ppm
- MBC (minimum bactericidal concentration) [3, 7]: 8.0 ppm
- MIC [3, 7]: 1.0 ppm

Structure (SMILES): CNS(=O)(=O)c1ccc2c(c1)[I+]c1cc(S(=O)(=O)NC)ccc1O2 [7(a), 3,7-Bis(methylaminosulfonyl)phenoxiodinin-5-ium bromide hemihydrate]
- MIC (Staphylococcus aureus): 500 µg/mL

- MIC [3, 6]: 3.12 ppm
Structure (SMILES): O=C(c1ccc2c(c1)[I+]c1cc(C(=O)C34CC5CC(CC(C5)C3)C4)ccc1O2)C12CC3CC(CC(C3)C1)C2 (single isomer, unassigned) [5(a)]
- Minimum inhibitory concentration, Sa (Staphylococcus aureus): 12.5 PPM
- MBC [3, 8]: 3.12 µg/mL
- Minimum inhibitory concentration, Sm (Streptococcus mutans [4]): 3.12 PPM

Structure (SMILES): CNS(=O)(=O)c1ccc2c(c1)[I+]c1cc(S(=O)(=O)NC)ccc1O2 [7(b), 3,7-Bis(methylaminosulfonyl)phenoxiodinin-5-ium chloride]
- MIC (Escherichia coli): 500 µg/mL
- MIC (Salmonella typhosa): 500 µg/mL
- MIC (Aspergillus niger): 500 µg/mL
- MIC (Streptococcus mutans [4]): 500 µg/mL

- MIC (Bacillus subtilis): 500 µg/mL
- MIC (Staphylococcus aureus): 500 µg/mL
- MIC [3, 9]: > 125 µg/mL
Structure (SMILES): CN(C)S(=O)(=O)c1ccc2c(c1)[I+]c1cc(S(=O)(=O)N(C)C)ccc1O2 [9(a), 3,7-Bis(dimethylaminosulfonyl)phenoxiodinin-5-ium bromide]
- Acid Inhibition (minimum concentration which prevented acid formation) (Streptococcus mutans [2]): 0.2 ppm
- MBC [3, 8]: > 125 µg/mL

Structure (SMILES): CN1CCN(S(=O)(=O)c2ccc3c(c2)[I+]c2cc(S(=O)(=O)N4CCN(C)CC4)ccc2O3)CC1 [4(a), 3,7-bis((4-Methyl-1-piperazinyl)sulfonyl)phenoxiodinin-5-ium bromide, hydrobromide]
- MIC (Escherichia coli): 500 µg/mL
- MIC (Salmonella typhosa): 500 µg/mL
- MIC (Bacillus subtilis): 100 µg/mL
- MIC (Staphylococcus aureus): 50 µg/mL
- MBC [3, 8]: ≥ 63 µg/mL
- MIC [3, 9]: ≥ 63 µg/mL

- MIC [3, 6]: 0.78 ppm
Structure (SMILES): O=C(c1ccc2c(c1)[I+]c1cc(C(=O)C34CC5CC(CC(C5)C3)C4)ccc1O2)C12CC3CC(CC(C3)C1)C2 (single isomer, unassigned) [5(b)]
- Minimum inhibitory concentration, Sa (Staphylococcus aureus): 0.78 PPM
- MBC (minimum bactericidal concentration) [3, 6]: 1.56 ppm
- Minimum inhibitory concentration, Sm (Streptococcus mutans [4]): 0.78 PPM

- MIC [3, 9]: 62.5 µg/mL
Structure (SMILES): O=S(=O)(c1ccc2c(c1)[I+]c1cc(S(=O)(=O)N3CCOCC3)ccc1O2)N1CCOCC1 [8(a), 3,7-Bis(4-morpholinylsulfonyl)phenoxiodinin-5-ium sulfate hydrate]
- minimal effective concentration (Streptococcus mutans [2]): 8 µg/mL
- MBC [3, 8]: > 125 µg/mL

Structure (SMILES): O=C(O)c1ccc2c(c1)[I+]c1cc(C(=O)O)ccc1O2 [6(a)]
- MIC (Escherichia coli): 5 µg/mL
- MIC (Proteus mirabilis): 50 µg/mL
- MIC (Salmonella typhosa): 10 µg/mL
- MIC (Bacillus subtilis): 0.5 µg/mL
- MIC (Staphylococcus aureus): 1 µg/mL
- minimal effective concentration (Streptococcus mutans [2]): 3.9 µg/mL
- MBC [3, 8]: 3.9 µg/mL
- MIC [3, 9]: 3.9 µg/mL
- MIC (Streptococcus mutans [4]): 500 µg/mL

Structure (SMILES): COC(=O)c1ccc2c(c1)[I+]c1cc(C(=O)O)ccc1O2 [3(a), 3-Carboxy-7-(methoxycarbonyl)phenoxiodinin-5-ium chloride monohydrate]
- MIC (Escherichia coli): 10 µg/mL
- MIC (Proteus mirabilis): 10 µg/mL
- MIC (Salmonella typhosa): 10 µg/mL
- MIC (Bacillus subtilis): 1 µg/mL
- MIC (Aspergillus niger): 500 µg/mL
- Minimum inhibitory concentration, Sa (Staphylococcus aureus; monohydrate): 5 PPM
- Minimum inhibitory concentration, Tm ([1]; monohydrate): 500 PPM
- MIC (Candida pelliculosa; Hansenula anomala, read-out: Minimum inhibitory concentration, Cp): 500 µg/mL
- MIC (Aspergillus fumigatus): 50 µg/mL
- minimal effective concentration (Streptococcus mutans [2]): 1 µg/mL
- MBC [3, 8]: 2 µg/mL
- MIC [3, 9]: 2 µg/mL
- Minimum inhibitory concentration, Sm (Streptococcus mutans [4]; monohydrate): 500 PPM

- MIC [3, 6]: > 125 ppm
Structure (SMILES): CN(C)S(=O)(=O)c1ccc2c(c1)[I+]c1cc(S(=O)(=O)N(C)C)ccc1O2 [9(b), 3,7-Bis(dimethylaminosulfonyl)phenoxidinin-5-ium chloride]
- Minimum inhibitory concentration, Bs (Bacillus subtilis): 500 PPM
- Minimum inhibitory concentration, Sa (Staphylococcus aureus): 500 PPM
- Acid Inhibition (minimum concentration which prevented acid formation) (Streptococcus mutans [2]): 0.03 ppm
- MBC (minimum bactericidal concentration) [3, 6]: > 125 ppm

Structure (SMILES): COC(=O)c1ccc2c(c1)[I+]c1cc(C(=O)O)ccc1O2 [3(b), 3-carboxy-7-(methoxycarbonyl)-phenoxiodinin-5-ium bromide monohydrate]
- Minimum inhibitory concentration, Ec (Escherichia coli; monohydrate): 5 PPM
- Minimum inhibitory concentration, Pm (Proteus mirabilis; monohydrate): 5 PPM
- Minimum inhibitory concentration, St (Salmonella typhosa; monohydrate): 5 PPM
- Minimum inhibitory concentration, Bs (Bacillus subtilis; monohydrate): 0.5 PPM
- Minimum inhibitory concentration, An (Aspergillus niger): 500 PPM
- Minimum inhibitory concentration, Sa (Staphylococcus aureus; monohydrate): 1.0 PPM
- Minimum inhibitory concentration, Tm ([1]; monohydrate): 100 PPM
- Minimum inhibitory concentration, Cp (Candida pelliculosa): 500 PPM
- Minimum inhibitory concentration, Af (Aspergillus fumigatus; monohydrate): 100 PPM
- Acid Inhibition (minimum concentration which prevented acid formation) (Streptococcus mutans [2]): 1.0 ppm
- MBC (minimum bactericidal concentration) [3, 5]: 1.0 ppm
- MIC [3, 5]: 2.0 ppm
- Minimum inhibitory concentration, Sm (Streptococcus mutans [4]; monohydrate): 10 PPM

Structure (SMILES): CC(=O)c1ccc2c(c1)[I+]c1cc(C(C)=O)ccc1O2 [1(a), 3,7-Diacetylphenoxiodinin-5-ium chloride dihydrate]
- Minimum inhibitory concentration, Ec (Escherichia coli; dihydrate): 50 PPM
- Minimum inhibitory concentration, Pm (Proteus mirabilis; dihydrate): 100 PPM
- MIC (Salmonella typhosa): 10 µg/mL
- Minimum inhibitory concentration, Bs (Bacillus subtilis; dihydrate): 5 PPM
- MIC (Staphylococcus aureus): 5 µg/mL
- Minimum inhibitory concentration, Tm ([1]; dihydrate): 500 PPM
- MIC (Aspergillus fumigatus): 500 µg/mL
- Acid Inhibition (minimum concentration which prevented acid formation) (Streptococcus mutans [2]; dihydrate): 0.12 ppm
- MBC (minimum bactericidal concentration) [3, 10]: 0.98 ppm
- MIC [3, 10]: 0.49 ppm

Structure (SMILES): COC(=O)c1ccc2c(c1)[I+]c1cc(C(=O)O)ccc1O2 [3(c)]
- Minimum inhibitory concentration, Ec (Escherichia coli): 5 PPM
- Minimum inhibitory concentration, Pm (Proteus mirabilis): 5 PPM
- Minimum inhibitory concentration, St (Salmonella typhosa): 5 PPM
- Minimum inhibitory concentration, Bs (Bacillus subtilis): 0.5 PPM
- Minimum inhibitory concentration, An (Aspergillus niger): 500 PPM
- Minimum inhibitory concentration, Sa (Staphylococcus aureus): 1.0 PPM
- Minimum inhibitory concentration, Tm [1]: 100 PPM
- Minimum inhibitory concentration, Cp (Candida pelliculosa): 500 PPM
- Minimum inhibitory concentration, Af (Aspergillus fumigatus): 100 PPM
- Acid Inhibition (minimum concentration which prevented acid formation) (Streptococcus mutans [2]): 1.0 ppm
- MBC (minimum bactericidal concentration) [3, 6]: 2.0 ppm
- MIC [3, 6]: 1.0 ppm
- Minimum inhibitory concentration, Sm (Streptococcus mutans [4]): 500 PPM
